Measurements published in US20100196510A1, “COMPOSITION AND TREATMENT” (priority 2007, published 2010).

Assays:
[1] = test system: rat sensory neurones (dorsal root ganglia); assay: Neurite length of sensory neurones (anti β-Tubulin) in cisplatin-induced toxicity model; type: cell-based; settings: for Mean neurite Length / neurite length, % Control without cisplatin: 10 ng/ml + cisplatin 3 μg/ml; for effect on cisplatin-induced loss of neurites (in words): 10 ng/ml, cisplatin 3 μg/ml
Method: (§1) The low molecular weight glycosaminoglycans are referred to in the examples as 2400 D.
(§2) 1. neurone cell bodies stained with an anti MAP 2 antibody (microtubule associated protein, and 2. neurite network density stained with an anti β-Tubulin antibody
Rat sensory neurones were prepared according to the method described by Hall et al 1997(3). Briefly, a female rat (15 days gestation) was killed by cervical dislocation (Rats Wistar; Janvier, Le Genest-St-Isle, France) and the foetuses removed from the uterus. Their spinal cords with the dorsal root ganglia (DRG) were removed and placed in ice-cold medium of Leibovitz (L15, Fisher 11415-049) containing Penicillin 50 Ul/ml—Streptomycin 50 μg/ml (PS, 1%) and bovine serum albumin (BSA 1%, Sigma A6003). The DRG were recovered and dissociated by trypsinisation for 20 min at 37° C. (trypsin EDTA 10×, 10%, Fisher 15400054) diluted in PBS without calcium and magnesium (Fisher 2007-03). […] The cell suspension was triturated with a 10 ml pipette and centrifuged at 350×g for 10 min at room temperature. The pellet of dissociated cells was then resuspended in defined culture medium.
Viable cells were counted in a Neubauer cytometer using the trypan blue exclusion test (Sigma) and seeded at a density of 30 000 cells/well in 96 well-plates (Nunc). Wells were pre-coated with poly-L-lysine (10 μg/ml, Sigma P2636) in ultra pure sterile water (Merck Eurolab 60759.01).
Cells were allowed to adhere for 2 h and maintained in a humidified incubator at 37° C. in 5% CO2/95% air atmosphere.
(§3) Six wells per condition were carried out to assess neuronal survival. After 48 hours and 72 hours of incubation, the neuronal cells were fixed for 5 minutes in an ethanol/acetic acid solution (95%/5%) at −20° C. and rinsed 3 times in PBS.
(§4) Cell bodies of sensory neurones were labelled by monoclonal anti MAP-2 antibody (Sigma M4403, see photograph 1A) and the neurite of sensory neurones were labelled by monoclonal β-Tubulin antibody (Sigma T8660). These antibodies were diluted at 1:400 in incubation solution (PBS with 5% of FCS and 0.1% of saponin, Sigma S-7900). These antibodies specifically label neurone cell bodies and neurites, respectively.
After 2 hours of incubation, the cells were washed in PBS and incubated with Alexa Fluor 488 goat anti mouse IgG (Molecular Probes A11001) diluted at 1:300 in incubation solution to reveal the MAP-2 and the β-Tubulin antibodies. Cell nuclei were stained with a fluorescent marker (Hoechst staining solution, SIGMA H6024, 1 μg/ml in incubation solution during 1 hour).
(§5) For each condition, 2 pictures per well (12 pictures per condition) were taken using In Cell Analyzer 1000 (Amersham Biosciences) controlled by the computer software In Cell Analyzer 1000 3.2. For the MAP-2 labelling, the magnification was ×10, for the β-Tubulin labelling, the magnification was ×20. For each labelling, all the images were taken in the same conditions.
(§6) Analysis of the number of cell bodies labelled with anti MAP-2 antibodies, and total length of neurites labelled with anti β-Tubulin antibodies, were carried out using In Cell Analyzer 1000 3.2.Workstation software. The results were expressed in percentage compared to the vehicle. The comparisons of each group were carried out using the unpaired T test.

[2] = test system: rat sensory neurones (dorsal root ganglia); assay: Number of neuronal cell bodies per field (anti MAP-2) in cisplatin-induced toxicity model; type: cell-based; settings: for number of cell bodies per field, Average / number of cell bodies, % Control without cisplatin: 10 ng/ml + cisplatin 3 μg/ml; for effect on cisplatin-induced loss of cell bodies (in words): 10 ng/ml, cisplatin 3 μg/ml
Method: as §1, §2
Briefly, a female rat (15 days gestation) was killed by cervical dislocation (Rats Wistar; Janvier, Le Genest-St-Isle, France) and the foetuses removed from the uterus. […] The DRG were recovered and dissociated by trypsinisation for 20 min at 37° C. […] The cell suspension was triturated with a 10 ml pipette and centrifuged at 350×g for 10 min at room temperature. The pellet of dissociated cells was then resuspended in defined culture medium.
Viable cells were counted in a Neubauer cytometer using the trypan blue exclusion test (Sigma) and seeded at a density of 30 000 cells/well in 96 well-plates (Nunc).
as §3, §4
Cell nuclei were stained with a fluorescent marker (Hoechst staining solution, SIGMA H6024, 1 μg/ml in incubation solution during 1 hour).
as §5, §6

NGF: Nerve Growth Factor, a specific growth factor for sensory neurons; reference compound
Mean neurite Length ([1]; 48 hours): 6362.44 μm | neurite length, % Control without cisplatin ([1]; 48 hours): 117% | Mean neurite Length ([1]; 72 hours): 6000.30 μm | neurite length, % Control without cisplatin ([1]; 72 hours): 113% | effect on cisplatin-induced loss of neurites (in words) ([1]; 48 hours): prevented cisplatin-induced loss of neurites | effect on cisplatin-induced loss of neurites (in words) ([1]; 72 hours): prevented cisplatin-induced loss of neurites | number of cell bodies per field, Average ([2]; 48 hours): 58.33 | number of cell bodies, % Control without cisplatin ([2]; 48 hours): 96% | number of cell bodies per field, Average ([2]; 72 hours): 54.92 | number of cell bodies, % Control without cisplatin ([2]; 72 hours): 102% | effect on cisplatin-induced loss of cell bodies (in words) ([2]; 48 hours): almost completely prevented cisplatin-induced loss of cell bodies | effect on cisplatin-induced loss of cell bodies (in words) ([2]; 72 hours section (text prints 48 hours)): completely prevented cisplatin-induced loss of cell bodies
